Experimental data published in the NIST ThermoML archive (doi:10.1021/je050116g).

Experiments:
[1] = 298.15 K; 101.33 kPa; Liquid
[2] = relative permittivity at various frequencies (dimensionless); xn = mol fraction of the nth substance listed; conditions: 298.15 K, 101.33 kPa, Liquid, Frequency=0.03 MHz, Parallel plate capacitor
[3] = xn = mol fraction of the nth substance listed; conditions: 298.15 K, 101.33 kPa, Liquid

CCCCO [butan-1-ol]
Conditions | mass density [kg/m3]
[1] | 805.767

CCCCCCCCCCO [decan-1-ol]
Conditions | mass density [kg/m3]
[1] | 826.421

CCCCCCCCCCO [decan-1-ol] + CCCCCCCCCCCC
Conditions | mass density, [3] [kg/m3] | relative permittivity, [2]
x1 = 0.001264 | 745.351 | –
x1 = 0.001971 | – | 2.00974
x1 = 0.002235 | 745.401 | –
x1 = 0.002902 | – | 2.01098
x1 = 0.003662 | – | 2.01199
x1 = 0.004525 | – | 2.01314
x1 = 0.00462 | 745.527 | –
x1 = 0.005614 | – | 2.01459
x1 = 0.006788 | – | 2.01613
x1 = 0.007983 | – | 2.01764
x1 = 0.009268 | – | 2.0192
x1 = 0.01089 | – | 2.02107
x1 = 0.01183 | 745.934 | –
x1 = 0.01283 | – | 2.02321
x1 = 0.01445 | – | 2.02492
x1 = 0.01654 | – | 2.027
x1 = 0.01864 | – | 2.029
x1 = 0.02121 | – | 2.03137
x1 = 0.02459 | – | 2.03426
x1 = 0.02958 | – | 2.03864
x1 = 0.0323 | 747.221 | –
x1 = 0.03739 | – | 2.04514
x1 = 0.04685 | – | 2.05286
x1 = 0.05669 | 748.861 | 2.06088
x1 = 0.06704 | – | 2.06945
x1 = 0.07856 | – | 2.07915
x1 = 0.08334 | 750.666 | –
x1 = 0.08846 | – | 2.08773
x1 = 0.1051 | – | 2.10262
x1 = 0.1069 | 752.273 | –

CCCCCCCCCCCC [dodecane]
Conditions | mass density [kg/m3]
[1] | 745.435

CCCCCCCCCCCC [dodecane] + CCCCCO
Conditions | mass density [kg/m3] | relative permittivity
[2], x2 = 0.000482 | – | 2.00767
[2], x2 = 0.001089 | – | 2.00844
[2], x2 = 0.001796 | – | 2.00932
[2], x2 = 0.002589 | – | 2.01032
[2], x2 = 0.00344 | – | 2.0114
[2], x2 = 0.004549 | – | 2.0128
[2], x2 = 0.005875 | – | 2.01448
[2], x2 = 0.007295 | – | 2.01623
[2], x2 = 0.009216 | – | 2.0185
[2], x2 = 0.01162 | – | 2.02114
[2], x2 = 0.0141 | – | 2.02365
[2], x2 = 0.01688 | – | 2.02629
[2], x2 = 0.0211 | – | 2.03003
[2], x2 = 0.02571 | – | 2.03388
[2], x2 = 0.03208 | – | 2.03903
[2], x2 = 0.03962 | – | 2.045
[2], x2 = 0.04963 | – | 2.05298
[2], x2 = 0.05931 | – | 2.0609
[2], x2 = 0.07029 | – | 2.07011
[2], x2 = 0.08177 | – | 2.08023
[2], x2 = 0.09402 | – | 2.09162
[2], x2 = 0.1068 | – | 2.10429
[3], x2 = 0.00199 | 745.463 | –
[3], x2 = 0.00476 | 745.503 | –
[3], x2 = 0.00753 | 745.546 | –
[3], x2 = 0.01643 | 745.714 | –
[3], x2 = 0.02691 | 745.951 | –
[3], x2 = 0.03525 | 746.159 | –
[3], x2 = 0.05055 | 746.571 | –
[3], x2 = 0.06514 | 746.983 | –
[3], x2 = 0.08115 | 747.444 | –
[3], x2 = 0.09931 | 747.979 | –

CCCCCCCCCCCC [dodecane] + CCCCO
Conditions | mass density [kg/m3] | relative permittivity
[2], x2 = 0.000394 | – | 2.00775
[2], x2 = 0.001092 | – | 2.00861
[2], x2 = 0.001852 | – | 2.00955
[2], x2 = 0.002663 | – | 2.01056
[2], x2 = 0.003575 | – | 2.01169
[2], x2 = 0.004582 | – | 2.01295
[2], x2 = 0.005742 | – | 2.01438
[2], x2 = 0.007082 | – | 2.016
[2], x2 = 0.008478 | – | 2.01762
[2], x2 = 0.009996 | – | 2.0193
[2], x2 = 0.01196 | – | 2.02134
[2], x2 = 0.01472 | – | 2.02405
[2], x2 = 0.01783 | – | 2.02693
[2], x2 = 0.02067 | – | 2.02939
[2], x2 = 0.0262 | – | 2.03399
[2], x2 = 0.03349 | – | 2.03984
[2], x2 = 0.04201 | – | 2.04663
[2], x2 = 0.05197 | – | 2.05466
[2], x2 = 0.06201 | – | 2.06298
[2], x2 = 0.07269 | – | 2.07228
[2], x2 = 0.08613 | – | 2.08475
[2], x2 = 0.09876 | – | 2.09732
[3], x2 = 0.00247 | 745.45 | –
[3], x2 = 0.00337 | 745.455 | –
[3], x2 = 0.00504 | 745.466 | –
[3], x2 = 0.0089 | 745.497 | –
[3], x2 = 0.01274 | 745.535 | –
[3], x2 = 0.01568 | 745.569 | –
[3], x2 = 0.02553 | 745.703 | –
[3], x2 = 0.04126 | 745.979 | –
[3], x2 = 0.06044 | 746.372 | –
[3], x2 = 0.07754 | 746.736 | –
[3], x2 = 0.1034 | 747.278 | –

CCCCCCCCCCCC [dodecane] + CCCO
Conditions | mass density [kg/m3] | relative permittivity
[2], x2 = 0.001113 | – | 2.00841
[2], x2 = 0.001805 | – | 2.00926
[2], x2 = 0.00262 | – | 2.01026
[2], x2 = 0.003582 | – | 2.01146
[2], x2 = 0.004766 | – | 2.01292
[2], x2 = 0.006045 | – | 2.01449
[2], x2 = 0.00741 | – | 2.01613
[2], x2 = 0.00918 | – | 2.01815
[2], x2 = 0.01131 | – | 2.0204
[2], x2 = 0.01408 | – | 2.02313
[2], x2 = 0.01818 | – | 2.02685
[2], x2 = 0.0234 | – | 2.03119
[2], x2 = 0.02953 | – | 2.03612
[2], x2 = 0.03486 | – | 2.04033
[2], x2 = 0.04243 | – | 2.04635
[2], x2 = 0.05033 | – | 2.05272
[2], x2 = 0.06022 | – | 2.06108
[2], x2 = 0.07048 | – | 2.07019
[2], x2 = 0.08292 | – | 2.08206
[2], x2 = 0.09516 | – | 2.09474
[2], x2 = 0.11 | – | 2.11157
[3], x2 = 0.00273 | 745.43 | –
[3], x2 = 0.00429 | 745.426 | –
[3], x2 = 0.007 | 745.424 | –
[3], x2 = 0.01162 | 745.429 | –
[3], x2 = 0.0181 | 745.456 | –
[3], x2 = 0.0248 | 745.504 | –
[3], x2 = 0.04304 | 745.689 | –
[3], x2 = 0.06062 | 745.916 | –
[3], x2 = 0.07866 | 746.164 | –
[3], x2 = 0.1025 | 746.495 | –

CCCCCCCCCCCC [dodecane] + CCO
Conditions | mass density [kg/m3] | relative permittivity
[2], x2 = 0.000779 | – | 2.00812
[2], x2 = 0.001608 | – | 2.00915
[2], x2 = 0.002571 | – | 2.01035
[2], x2 = 0.003578 | – | 2.0116
[2], x2 = 0.004642 | – | 2.01293
[2], x2 = 0.005982 | – | 2.01453
[2], x2 = 0.007701 | – | 2.01653
[2], x2 = 0.009387 | – | 2.0184
[2], x2 = 0.01111 | – | 2.02022
[2], x2 = 0.01308 | – | 2.02209
[2], x2 = 0.01589 | – | 2.02461
[2], x2 = 0.02008 | – | 2.02815
[2], x2 = 0.02502 | – | 2.03214
[2], x2 = 0.03098 | – | 2.03689
[2], x2 = 0.03829 | – | 2.04274
[2], x2 = 0.04601 | – | 2.04907
[2], x2 = 0.055 | – | 2.05682
[2], x2 = 0.06553 | – | 2.06649
[2], x2 = 0.07632 | – | 2.07716
[2], x2 = 0.08814 | – | 2.08986
[2], x2 = 0.1017 | – | 2.10596
[3], x2 = 0.00284 | 745.404 | –
[3], x2 = 0.0035 | 745.397 | –
[3], x2 = 0.00482 | 745.386 | –
[3], x2 = 0.0076 | 745.363 | –
[3], x2 = 0.01169 | 745.338 | –
[3], x2 = 0.01342 | 745.329 | –
[3], x2 = 0.0189 | 745.313 | –
[3], x2 = 0.02678 | 745.305 | –
[3], x2 = 0.04127 | 745.348 | –
[3], x2 = 0.06055 | 745.432 | –
[3], x2 = 0.08084 | 745.514 | –
[3], x2 = 0.09645 | 745.601 | –
